Target: T1, Polyunsaturated fatty acid lipoxygenase ALOX15 (Oryctolagus cuniculus, UniProt P12530)
T1 sequence (P12530 whole entry): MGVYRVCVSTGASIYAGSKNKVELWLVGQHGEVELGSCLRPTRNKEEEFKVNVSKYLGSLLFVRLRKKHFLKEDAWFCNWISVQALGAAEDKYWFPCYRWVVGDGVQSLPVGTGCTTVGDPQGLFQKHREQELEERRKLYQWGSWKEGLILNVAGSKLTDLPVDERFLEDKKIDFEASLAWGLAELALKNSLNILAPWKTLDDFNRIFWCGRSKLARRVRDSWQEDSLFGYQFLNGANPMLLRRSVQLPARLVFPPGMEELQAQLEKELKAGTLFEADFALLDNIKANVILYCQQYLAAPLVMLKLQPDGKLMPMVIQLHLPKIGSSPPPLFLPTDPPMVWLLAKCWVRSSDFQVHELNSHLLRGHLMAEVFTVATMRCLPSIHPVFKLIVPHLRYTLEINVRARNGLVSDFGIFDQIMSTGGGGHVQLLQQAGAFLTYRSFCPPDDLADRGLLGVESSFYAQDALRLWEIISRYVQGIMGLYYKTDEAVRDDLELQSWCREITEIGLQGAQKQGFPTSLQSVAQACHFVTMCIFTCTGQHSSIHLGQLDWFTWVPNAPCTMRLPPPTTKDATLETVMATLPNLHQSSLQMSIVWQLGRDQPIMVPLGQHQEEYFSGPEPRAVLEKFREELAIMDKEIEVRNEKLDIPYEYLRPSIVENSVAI
Assay: Enzyme Inhibition Assay
Description: The inhibitory activity of the compounds against purified 15-LO enzyme was determined using a standard colorimetric assay in which the lipid hydroperoxide product (13-hydroperoxyoctadecadienoic acid) oxidizes Fe2+. The Fe3+ forms a chromophore with xylenol orange that absorbs strongly at 560 nm.

Compound	IC50 [nM]
COc1ccc(-c2nc(-c3cccs3)[nH]c2CCNS(=O)(=O)N(C)[C@@H]2CCN(c3ccc(Cl)c(Cl)c3)C2)cc1 [{[(3R)-1-(3,4-dichlorophenyl)pyrrolidin-3-yl](methyl)sulfamoyl}({2-[5-(4-methoxyphenyl)-2-(thiophen-2-yl)-1H-imidazol-4-yl]ethyl})amine]	11
CCCCCc1ccc(S(=O)(=O)NCCc2nc(-c3ccc(Cl)cc3)[nH]c2-c2ccc(OC)cc2)cc1 [N-{2-[2-(4-chlorophenyl)-5-(4-methoxyphenyl)-1H-imidazol-4-yl]ethyl}-4-pentylbenzene-1-sulfonamide]	210
